In patent publication US20220151954A1, “TREATMENT OF SEBACEOUS GLAND DISORDERS” (priority 2019, published 2022):

Legend:
P. acnes = assay: Propionibacterium acnes growth inhibition (absorbance at 600 nm); type: cell-based
Experimental: A streak plate isolation technique was performed to isolate a single homogenous colony of P. acnes. A pinch of one colony was inoculated from agar plate into U-shape falcon tube containing 4 ml of broth media. Cultures were incubated at 37° C. in reduced oxygen-conditions for 72 hours. The cultures were then diluted and grown to mid-log phase (O.D. 0.5; 600 nm) for 3 hr.
The bacteria were incubated with the test components (cannabidiol and/or extract of C. asiatica) at different concentrations in triplicate at a final volume of 200 μl in an N-pre-flushed U shape 96-well plates for 3 hr. An additional blank control group was included (media w/o bacteria). Also, a negative (bacteria without test samples) control groups was included in the assay. In addition, combinations of the these components were tested (see Table 2).
The absorbance was recorded at 600 nm. The absorbance of the blank control was subtracted from all measurements. The change in bacterial number in response to increasing test sample concentrations was plotted.

[1] = tested on: TNFα secretion by U937 cells; assay: Inhibition of secretion of TNFα by lipopolysaccharide-stimulated U937 cells (ELISA); type: cell-based
Experimental: (§1) U937 cells, were thawed and treated according to the manufacturer's instructions. The cultures were incubated for recovery at 37° C. with 5% CO2 until 70-80% confluency was reached (visual estimation). Then, approx. 0.3×10^6 ¢/mL (determined by counting) were seeded in 96 well plates containing 200 μL/well of complete growth medium. The cells were incubated at 37° C. with 5% CO2 until 60% confluency was reached (visual estimation, typically—after 48 hr).
(§2) After the cells had reached the required confluency, the medium was replaced with pre-prepared growth medium supplemented with 1 μg/mL of lipopolysaccharides, and the test components were added, at a final volume of 200 μL/well. The following control groups were also added: Naïve cells, vehicle control, stimulation control, stimulation vehicle control. A proper blank control was subtracted from the measurements.
(§3) The cells were incubated for 24 hr. at 37° C. with 5% CO2. After the incubation, the conditioned medium of the different treatment groups was collected under standardized conditions and centrifuged at 250×g for 5 min to remove particulates. Clear supernatants were frozen at −70° C. until cytokines analyses. The secretion levels of IL-1β and TNFα (a major inflammatory marker) were quantified by commercial ELISA.

human sebocytes = settings: cited from earlier work
[2] = tested on: IL-1β secretion by U937 cells; assay: Inhibition of secretion of IL-1β by lipopolysaccharide-stimulated U937 cells (ELISA); type: cell-based
Experimental: as §1, §2, §3

[3] = tested on: PGE2 secretion by RAW 264.7 cells; assay: Secretion of PGE2 by LPS-stimulated RAW 264.7 cells; type: cell-based
Experimental: RAW 264.7 cells (approx. 2.5×10^5 ¢/ml, by counting) were seeded in 96 well plates containing 170 μl/well of complete growth medium. The cells were incubated at 37° C. with 5% CO2 for 24 hr. […] In addition, naïve cells, vehicle-treated cells, Stimulated Control, and Stimulated Vehicle Control served as negative controls. Dexamethasone served as a positive control for anti-inflammatory assay. A Blank control group was included in the assay.
The spent media from all test groups were collected under standardized conditions and centrifuged at 250 g for 5 min to remove particulates. Clear supernatants were frozen at −70° C. until analysis. The secretion levels of PGE2 (an important inflammatory marker) were determined.

[4] = Homo sapiens, U-937, each component present at 10 μg/ml, 1 μg/mL lipopolysaccharides, 24 hr
[5] = cultured human sebocytes and human skin organ culture

C=C(C)[C@@H]1CCC(C)=C[C@H]1c1c(O)cc(CCCCC)cc1O [Cannabidiol, cannabidiol]
inhibition at 1.25 µg/mL (P. acnes; Cutibacterium acnes, Sample 1: cannabidiol 1.25 μg/ml, C. asiatica 0, 3 hr): -10.9%
inhibition at 2.5 µg/mL (P. acnes; Cutibacterium acnes, Sample 2: cannabidiol 2.5 μg/ml, C. asiatica 0, 3 hr): 5.7%
effect on growth of P. acnes (in words) (P. acnes; summary of Table 2): neither cannabidiol nor extract of C. asiatica significantly inhibits growth
inhibition at 10 µg/mL [1, 4]: 48%
effect on secretion of TNFα (in words) ([1]; summary of Table 3): attenuates
effect on lipogenic actions of arachidonic acid, linoleic acid + testosterone (in words) (human sebocytes; [5]): inhibited the lipogenic actions
effect on sebocyte proliferation (in words) (human sebocytes; [5]): suppressed sebocyte proliferation
anti-inflammatory action (in words) (human sebocytes; human sebocytes): exerted complex anti-inflammatory actions
inhibition at 10 µg/mL [2, 4]: 28.4%
effect on secretion of IL-1β (in words) ([2]; summary of Table 3): attenuates
inhibition at 1.25 µg/mL ([3]; Mus musculus, RAW264.7, Sample 1: cannabidiol 1.25 μg/ml alone, RAW 264.7, LPS 12.5 ng/ml): 1.9%
inhibition at 2.5 µg/mL ([3]; Mus musculus, RAW264.7, Sample 2: cannabidiol 2.5 μg/ml alone, RAW 264.7, LPS 12.5 ng/ml): 24%
effect on secretion of PGE2 (in words) ([3]; at a concentration of 2.5 μg/ml): attenuates
